According to patent publication US9006450B2 (Boehringer Ingelheim International GmbH, priority 2010, dated 2015):

What follows are compounds tested against T1, human ACC2 (Homo sapiens, UniProt O00763) (assay: ACC2 assay, spectrophotometric 384 well assay (NADH-linked, coupled lactate dehydrogenase/pyruvate kinase)). Settings: ACC2 assay, hACC2 construct lacking 128 N-terminal amino acids, 25° C., 340 nm; read-out: IC50.
T1 construct: made in house; host or cells: insect cells (baculoviral expression system)
T1 sequence (O00763 129-2458 limits assumed): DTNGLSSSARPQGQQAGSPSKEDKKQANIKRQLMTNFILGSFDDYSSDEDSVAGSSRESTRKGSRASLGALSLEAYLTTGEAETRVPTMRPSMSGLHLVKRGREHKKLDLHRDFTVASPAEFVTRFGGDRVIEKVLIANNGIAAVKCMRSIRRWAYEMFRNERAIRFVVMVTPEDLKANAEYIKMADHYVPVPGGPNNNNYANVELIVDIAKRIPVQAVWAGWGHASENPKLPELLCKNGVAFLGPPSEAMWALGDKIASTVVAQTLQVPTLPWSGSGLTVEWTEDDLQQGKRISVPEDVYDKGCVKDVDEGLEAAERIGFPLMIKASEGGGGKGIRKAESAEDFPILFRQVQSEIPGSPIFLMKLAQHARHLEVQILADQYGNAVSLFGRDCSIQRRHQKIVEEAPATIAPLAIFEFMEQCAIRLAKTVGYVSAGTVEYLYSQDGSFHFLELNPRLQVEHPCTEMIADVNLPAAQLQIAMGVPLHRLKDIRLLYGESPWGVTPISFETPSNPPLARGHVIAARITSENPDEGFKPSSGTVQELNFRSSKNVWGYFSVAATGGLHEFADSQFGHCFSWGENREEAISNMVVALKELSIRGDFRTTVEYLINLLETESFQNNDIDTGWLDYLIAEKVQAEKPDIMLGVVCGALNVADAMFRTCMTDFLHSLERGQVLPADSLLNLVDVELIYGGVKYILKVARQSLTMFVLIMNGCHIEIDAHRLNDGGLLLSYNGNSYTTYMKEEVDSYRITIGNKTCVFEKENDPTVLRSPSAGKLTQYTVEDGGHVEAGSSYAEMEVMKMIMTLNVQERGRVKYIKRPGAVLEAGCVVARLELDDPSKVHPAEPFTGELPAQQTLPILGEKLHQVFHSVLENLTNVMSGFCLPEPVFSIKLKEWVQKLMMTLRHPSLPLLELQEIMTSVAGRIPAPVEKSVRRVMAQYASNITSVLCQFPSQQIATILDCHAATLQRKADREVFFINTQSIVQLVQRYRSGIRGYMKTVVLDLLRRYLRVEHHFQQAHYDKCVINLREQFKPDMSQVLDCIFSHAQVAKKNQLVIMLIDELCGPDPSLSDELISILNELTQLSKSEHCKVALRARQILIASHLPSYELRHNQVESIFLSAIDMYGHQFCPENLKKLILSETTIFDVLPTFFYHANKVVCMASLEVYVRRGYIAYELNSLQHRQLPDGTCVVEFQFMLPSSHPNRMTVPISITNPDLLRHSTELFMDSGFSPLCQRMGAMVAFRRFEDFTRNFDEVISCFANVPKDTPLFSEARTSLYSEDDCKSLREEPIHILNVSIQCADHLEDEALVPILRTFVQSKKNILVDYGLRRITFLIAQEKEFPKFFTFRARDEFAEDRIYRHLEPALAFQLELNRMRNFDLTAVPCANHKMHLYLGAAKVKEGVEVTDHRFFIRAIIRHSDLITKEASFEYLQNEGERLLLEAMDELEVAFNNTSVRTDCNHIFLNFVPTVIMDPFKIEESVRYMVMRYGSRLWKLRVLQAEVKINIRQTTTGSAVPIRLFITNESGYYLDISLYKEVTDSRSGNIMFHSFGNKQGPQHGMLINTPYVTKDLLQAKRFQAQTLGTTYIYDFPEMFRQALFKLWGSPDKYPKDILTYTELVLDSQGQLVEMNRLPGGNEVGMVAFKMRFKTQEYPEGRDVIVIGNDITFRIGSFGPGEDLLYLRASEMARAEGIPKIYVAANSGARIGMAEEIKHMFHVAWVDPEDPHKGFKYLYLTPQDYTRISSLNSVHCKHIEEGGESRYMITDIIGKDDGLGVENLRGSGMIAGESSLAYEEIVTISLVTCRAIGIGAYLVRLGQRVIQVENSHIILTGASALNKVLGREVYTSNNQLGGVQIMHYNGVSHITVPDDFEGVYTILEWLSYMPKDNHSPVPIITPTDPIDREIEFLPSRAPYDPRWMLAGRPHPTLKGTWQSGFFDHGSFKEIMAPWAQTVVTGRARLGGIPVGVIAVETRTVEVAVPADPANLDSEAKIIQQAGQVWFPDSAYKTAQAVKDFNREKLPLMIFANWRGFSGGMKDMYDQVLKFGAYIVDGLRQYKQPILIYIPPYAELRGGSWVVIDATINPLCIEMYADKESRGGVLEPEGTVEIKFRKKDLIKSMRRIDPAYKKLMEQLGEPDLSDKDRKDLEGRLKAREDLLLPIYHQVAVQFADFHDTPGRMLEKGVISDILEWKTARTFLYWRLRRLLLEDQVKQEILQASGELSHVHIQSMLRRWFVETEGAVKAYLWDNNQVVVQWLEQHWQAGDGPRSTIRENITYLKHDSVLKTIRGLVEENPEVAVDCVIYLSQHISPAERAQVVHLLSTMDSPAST
Assay type: biochemical
Summary of the method: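 ADP output tracked via pyruvate kinase/lactate dehydrogenase NADH oxidation, slope at 340 nm over 15 min, 25° C, with 500 μM ATP and 200 μM each acetyl-CoA and NADH. Enzyme: insect-cell-expressed human ACC2, N-terminal 128 residues deleted; pH 7.5 Tris with citrate, KHCO3. IC50 from four-parameter regression versus vehicle and no-acetyl-CoA controls.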

Compound | IC50
C[C@H](NC(=O)C1CC1)c1ccc(C2CCN(c3nc(N(C)CC4CC4)ncc3C#N)CC2)cc1 [Example 11.126] | 810 nM
C[C@H](NC(=O)C1CC1)c1ccc(C2CCN(c3ncc(C#N)c(N(C)CC4CC4)n3)CC2)cc1 [Example 11.127] | 3500 nM
C[C@H](NC(=O)C1CC1)c1ccc(C2CCN(c3ncnc(N(C)CC4CC4)c3F)CC2)cc1 [Example 11.128] | 410 nM
CC(C)Oc1ncc(F)c(N2CCC(c3ccc([C@H](C)NC(=O)C4CC4)cc3)CC2)n1 [Example 11.129] | 1300 nM
CC(C)Oc1ncnc(N2CCC(c3ccc([C@H](C)NC(=O)C4CC4)cc3)CC2)c1F [Example 11.130] | 370 nM
CC(=O)N[C@@H](C)c1ccc(C2CCN(c3ccnc(OCC4CC4)n3)CC2)cc1 [Example 11.131] | 1100 nM
CC(=O)N[C@@H](C)c1ccc(C2CCN(c3cc(NC4CC4)ncn3)CC2)cc1 [Example 11.132] | 3000 nM
CC(=O)NC(C)Cc1ccc(C2CCN(c3ccnc(N(C)C4CCCC4)n3)CC2)cc1 (stereo not drawn) [Example 12.1, N-[2-(4-{1-[2-(Cyclopentyl-methyl-amino)-pyrimidin-4-yl]-piperidin-4-yl}-phenyl)-1-methyl-ethyl]-acetamide] | 610 nM
CCCOc1ccc(N2CCC(c3ccc([C@H](C)NC(C)=O)cc3)CC2)c(C#N)c1 [Example 13.1, (S)—N-(1-{4-[1-(2-Cyano-4-propoxy-phenyl)-piperidin-4-yl]-phenyl}-ethyl)-acetamide] | 90 nM
CC(=O)N[C@@H](C)c1ccc(C2CCN(c3ccc(OCC4CC4)cc3C#N)CC2)cc1 [Example 13.2] | 130 nM
CCOc1ccc(N2CCC(c3ccc([C@H](C)NC(C)=O)cc3)CC2)c(C#N)c1 [Example 13.3] | 170 nM
CCOc1ccc(N2CCC(c3ccc([C@H](C)NC(=O)NC)cc3)CC2)cc1 [Example 14.1, (S)-1-(1-{4-[1-(4-Ethoxy-phenyl)-piperidin-4-yl]-phenyl}-ethyl)-3-methyl-urea] | 470 nM
CCNC(=O)N[C@@H](C)c1ccc(C2CCN(c3ccc(OCC)cc3)CC2)cc1 [Example 14.2] | 2700 nM
CCOc1ccc(N2CCC(c3ccc([C@H](C)NC(=O)NC4CC4)cc3)CC2)cc1 [Example 14.3] | 1400 nM
CCOc1ccc(N2CCC(c3ccc([C@H](C)NC(N)=O)cc3)CC2)cc1 [Example 14.5] | 1700 nM
CCOc1ccc(N2CCC(c3ccc([C@H](C)NC(=O)N(C)C4CC4)cc3)CC2)cc1 [Example 14.50, (S)-1-Cyclopropyl-3-(1-{4-[1-(4-ethoxy-phenyl)-piperidin-4-yl]-phenyl}-ethyl)-1-methylurea] | 3800 nM
CCOc1ccc(N2CCC(c3ccc([C@H](C)NC(=O)N(C)CC)cc3)CC2)cc1 [Example 14.51] | 610 nM
CCOc1ccc(N2CCC(c3ccc([C@H](C)NC(=O)N(C)C(C)C)cc3)CC2)cc1 [Example 14.53] | 4900 nM
CCCN(C)C(=O)N[C@@H](C)c1ccc(C2CCN(c3ccc(OCC)cc3)CC2)cc1 [Example 14.54] | 1100 nM
CCOc1ccc(N2CCC(c3ccc([C@H](C)NC(=O)Nc4cccnc4)cc3)CC2)cc1 [Example 14.55] | 1700 nM
CCOc1ccc(N2CCC(c3ccc([C@H](C)NC(=O)Nc4ncccn4)cc3)CC2)cc1 [Example 14.56] | 14700 nM
CCOc1ccc(N2CCC(c3ccc([C@H](C)NC(=O)Nc4nccs4)cc3)CC2)cc1 [Example 14.57] | 14200 nM
CCOc1ccc(N2CCC(c3ccc([C@H](C)NC(=O)Nc4ccnnc4)cc3)CC2)cc1 [Example 14.58] | 7100 nM

Compound | IC50
CCOc1ccc(N2CCC(c3ccc([C@H](C)NC(=O)Nc4cncnc4)cc3)CC2)cc1 [Example 14.59] | 1500 nM
CCOc1ccc(N2CCC(c3ccc([C@H](C)NC(=O)NCc4ccncn4)cc3)CC2)cc1 [Example 14.60] | 2100 nM
CCOc1ccc(N2CCC(c3ccc([C@H](C)NC(=O)N(C)CCc4cn[nH]c4)cc3)CC2)cc1 [Example 14.61] | 530 nM
CCOc1ccc(N2CCC(c3ccc([C@H](C)NC(=O)NCc4cncnc4)cc3)CC2)cc1 [Example 14.62] | 13300 nM
CCOc1ccc(N2CCC(c3ccc([C@H](C)NC(=O)N4CCOCC4)cc3)CC2)cc1 [Example 14.63] | 1600 nM
CCOc1ccc(N2CCC(c3ccc([C@H](C)NC(=O)N(C)Cc4ccn(C)n4)cc3)CC2)cc1 [Example 14.64] | 3800 nM
CCOc1ccc(N2CCC(c3ccc([C@H](C)NC(=O)N(C)CC4CC4)cc3)CC2)cc1 [Example 14.65] | 3700 nM
CCOc1ccc(N2CCC(c3ccc([C@H](C)NC(=O)N4CCC4)cc3)CC2)cc1 [Example 14.66] | 2200 nM
CCOc1ccc(N2CCC(c3ccc([C@H](C)NC(=O)N(CC)CC)cc3)CC2)cc1 [Example 14.67] | 1900 nM
CCOc1ccc(N2CCC(c3ccc([C@H](C)NC(=O)N4CCCC4)cc3)CC2)cc1 [Example 14.68] | 7800 nM
CCOc1ccc(N2CCC(c3ccc([C@H](C)NC(=O)N4CCCCC4)cc3)CC2)cc1 [Example 14.69] | 12100 nM
CCOc1ccc(N2CCC(c3ccc([C@H](C)NC(=O)Nc4ccon4)cc3)CC2)cc1 [Example 14.70] | 790 nM
COC(=O)Cc1ccc(N2CCC(c3ccc([C@H](C)NC(C)=O)cc3)CC2)cc1 [Example 15.1, (S)-(4-{4-[4-(1-Acetylamino-ethyl)-phenyl]-piperidin-1-yl}-phenyl)-acetic acid methyl ester] | 2800 nM
COC(=O)c1cccc(N2CCC(c3ccc([C@H](C)NC(C)=O)cc3)CC2)c1 [Example 15.2] | 350 nM
CC(=O)N[C@@H](C)c1ccc(C2CCN(c3ccnc(OCc4ccccc4)c3)CC2)cc1 [Example 15.3] | 200 nM
CC(=O)N[C@@H](C)c1ccc(C2CCN(c3ccc(C)nc3)CC2)cc1 [Example 15.5] | 17700 nM
CC(=O)N[C@@H](C)c1ccc(C2CCN(c3ccc4oc(C(C)C)nc4c3)CC2)cc1 [Example 15.6] | 260 nM
COCc1nc2cc(N3CCC(c4ccc([C@H](C)NC(C)=O)cc4)CC3)ccc2o1 [Example 15.7] | 1500 nM
CC(=O)N[C@@H](C)c1ccc(C2CCN(c3ccc(C(F)(F)F)nc3)CC2)cc1 [Example 15.8] | 8400 nM
COc1cncc(N2CCC(c3ccc([C@H](C)NC(C)=O)cc3)CC2)c1 [Example 15.9] | 19900 nM
CC(=O)N[C@@H](C)c1ccc(C2CCN(c3cnccc3C)CC2)cc1 [Example 15.10] | 3200 nM
CC(=O)N[C@@H](C)c1ccc(C2CCN(c3ccc(-c4cccs4)nc3)CC2)cc1 [Example 15.11] | 160 nM
CC(=O)N[C@@H](C)c1ccc(C2CCN(c3ccc(C(C)(C)C)nc3)CC2)cc1 [Example 15.12] | 2200 nM

Compound | IC50
CC(=O)N[C@@H](C)c1ccc(C2CCN(c3ccc4oc(C)nc4c3)CC2)cc1 [Example 15.13] | 970 nM
CC(=O)N[C@@H](C)c1ccc(C2CCN(c3ccc4oc(C5CC5)nc4c3)CC2)cc1 [Example 15.14] | 880 nM
CC(=O)N[C@@H](C)c1ccc(C2CCN(c3ccc4nc(C)oc4c3)CC2)cc1 [Example 15.15] | 990 nM
CCOC(=O)c1cc2cc(N3CCC(c4ccc([C@H](C)NC(C)=O)cc4)CC3)ccc2o1 [Example 15.17] | 300 nM
CCOc1ccc(N2CCC(c3ccc([C@H](C)NC(=O)OC)cc3)CC2)c(C#N)c1 [Example 15.18] | 330 nM
CCC(NC(C)=O)c1ccc(C2CCN(c3ccnc(Oc4ccccc4)c3)CC2)cc1 (stereo not drawn) [Example 15.19] | 3900 nM
CCCOc1ccc(N2CCC(c3ccc(C(CC)NC(C)=O)cc3)CC2)c(OC)c1 (stereo not drawn) [Example 15.20] | 3900 nM
CCC(NC(C)=O)c1ccc(C2CCN(c3ccc(OCC(C)C)cc3)CC2)cc1 (stereo not drawn) [Example 15.21] | 1200 nM
CCCOc1ccc(N2CCC(c3ccc([C@@H](C)NC(C)=O)cc3)CC2)c(OC)c1 [Example 15.23] | 6400 nM
CCOc1ncc(N2CCC(c3ccc([C@H](C)NC(C)=O)cc3)CC2)cn1 [Example 16.1, (S)—N-(1-M{4-[1-(2-Ethoxy-pyrimidin-5-yl)-piperidin-4-yl]-phenyl}-ethyl)-acetamide] | 1400 nM
COc1ncc(N2CCC(c3ccc([C@H](C)NC(C)=O)cc3)CC2)cn1 [Example 16.2] | 4800 nM
CCNc1ncc(N2CCC(c3ccc([C@H](C)NC(C)=O)cc3)CC2)cn1 [Example 16.4] | 620 nM
CC(=O)N[C@@H](C)c1ccc(C2CCN(c3cnc(OCC4CC4)nc3)CC2)cc1 [Example 16.5] | 2500 nM
C[C@H](NC(=O)N(C)C)c1ccc(C2CCN(c3cnc(OCC4CC4)nc3)CC2)cc1 [Example 16.6] | 450 nM
CCOc1ncc(N2CCC(c3ccc([C@H](C)NC(=O)N(C)C)cc3)CC2)cn1 [Example 16.7] | 1400 nM
CCOc1ncc(N2CCC(c3ccc([C@H](C)NC(=O)C4CC4)cc3)CC2)cn1 [Example 16.8] | 3900 nM
C[C@H](NC(=O)C1CC1)c1ccc(C2CCN(c3cnc(NCC4CC4)nc3)CC2)cc1 [Example 16.9] | 6700 nM
CCOc1ncc(N2CCC(c3ccc([C@H](C)NC(C)=O)cc3)CC2)c(OC)n1 [Example 16.10] | 930 nM
COc1nc(OCC2CC2)ncc1N1CCC(c2ccc([C@H](C)NC(C)=O)cc2)CC1 [Example 16.11] | 1300 nM
CCOc1ccc(N2CCC(c3ccc([C@H](C)NS(C)(=O)=O)cc3)CC2)cc1 [Example 17.1, (S)—N-(1-{4-[1-(4-Ethoxy-phenyl)-piperidin-4-yl]-phenyl}-ethyl)-methanesulfonamide] | 2900 nM
CCOc1ccc(N2CCC(c3ccc([C@H](C)NS(=O)(=O)CC)cc3)CC2)cc1 [Example 17.2] | 4200 nM
CCOc1ccc(N2CCC(c3ccc([C@H](C)NS(=O)(=O)C4CCC4)cc3)CC2)cc1 [Example 17.3] | 7500 nM
CCOc1ccc(N2CCC(c3ccc([C@H](C)NS(=O)(=O)C(F)(F)F)cc3)CC2)cc1 [Example 17.4] | 11300 nM
